Results as given in PMC4545913, “Dual EZH2 and EHMT2 histone methyltransferase inhibition increases biological efficacy in breast cancer cells” (Clinical Epigenetics, 2015).
One block for each compound: values may come before it.

How the values were obtained:
[1] = tested on: KRT17; experiment: qRT-PCR of KRT17 mRNA in MDA-MB-231 cells; format: cell-based; settings: for fold induction at 10 µM: MDA-MB-231, single dose 10 μM; for Change in KRT17 mRNA level: MDA-MB-231, 48 h, single agents 1–15 μM, combination UNC0638 at 7.5 μM with increasing doses of GSK343
Method: (§1) Following compound treatment of MDA-MB-231 for 48 h (in 6-well plates), media was removed and 1.5 ml of TRIzol (Invitrogen) was added directly to lyse cells and RNA was isolated according to the manufacturer’s instructions. Reverse transcription was done using the SuperScript III First-Strand Synthesis System (Invitrogen) according to the manufacturer’s instructions. Each measurement was done in triplicate, and the List of Primers can be found in Additional file 2: Table S1. For normalisation, we have used GAPDH and RNA pol II. Experiments were also done with the ‘Fast Sybr Green Cell-to-CT™-Kit’ according to the manufacturer’s instructions (Applied Biosystem). Fifteen thousand cells per 96 well were plated, and after 24 h, treated with compounds at various concentrations.
(§2) For qRT-PCR measurements the 2x iQ SYBR Green Supermix (Bio-Rad), 200nM Primers and 0.4μl of cDNA /per 20μl reaction was used. The measurement was done in low-white 96-well plates (Bio-Rad) on a CFX96 Real-time System/C1000 Thermal Cycler (Bio-Rad) with the following protocol: 95°C for 3’; 95°C for 10’’, 56°C for 10’’, 72°C for 30’’ 42 cycles followed by a melting curve from 72°C to 95°C.

[2] = tested on: FBXO32; experiment: qRT-PCR of FBXO32 mRNA in MDA-MB-231 cells; format: cell-based; settings: for fold induction at 10 µM: MDA-MB-231, single dose 10 μM; for Change in FBXO32 mRNA level: MDA-MB-231, 48 h, single agents 1–15 μM, combination UNC0638 at 7.5 μM with increasing doses of GSK343
Method: as §1, §2

[3] = tested on: JMJD3; experiment: qRT-PCR of JMJD3 mRNA in MDA-MB-231 cells; format: cell-based; settings: for fold induction at 10 µM: MDA-MB-231, single dose 10 μM; for Change in JMJD3 mRNA level: MDA-MB-231, 48 h, single agents 1–15 μM, combination UNC0638 at 7.5 μM with increasing doses of GSK343
Method: as §1, §2

[4] = tested on: EZH2; experiment: qRT-PCR of EZH2 mRNA in MDA-MB-231 cells; format: cell-based; settings: Homo sapiens, 48 h, normalised against GAPDH, read-out: EZH2 RNA level, fold increase compared to the mock treated sample; for fold induction at 10 µM: MDA-MB-231, single dose 10 μM
Method: as §1, §2

[5] = tested on: MDA-MB-231 cells; experiment: MTT cell viability assay; format: cell-based; settings: for IC50: Homo sapiens
Method: Fig. 1 MTT and mRNA levels in MDA-MB-231 cells after pharmacological inhibition and siRNA knockdown of EZH2 and EHMT2(G9a), individually and in combination. a Expression levels of KRT17, FBX032, JMJD3, EZH2, SPINK1 and EHMT2 were measured by qRT-PCR in the MDA-MB-231 cell line 48 h after transfection with siRNAs targeting EZH2 and EHMT2, both individually and in combination. All measurements were normalised to the fold-change (relative to GAPDH) in the mock transfection control. Error bars represent the mean ± SD of experiment performed in technical triplicate. b Expression levels of KRT17, FBX032, JMJD3 and SPINK1 were measured by qRT-PCR in the MDA-MB-231 cell line treated for 48 h with GSK343, UNC0638, and UNC0638 (at 7.5 μM) with increasing doses of GSK343. Each group has been compared to the untreated sample following normalisation to GAPDH. Error bars represent the mean ± SD of experiment performed in technical triplicate. c MTT assay for cell viability of MDA-MB-231 cells after treatment. MDA-MB-231 cells were seeded in 96 well plates. After 24 h, increasing doses of GSK343, UNC0638 or combination treatments (1, 2.5, 5, 7.5, 10 and 15 μM) were added to cells. Control was media with 0.5 % DMSO. Cell viability was measured by MTT assay after a 48-h treatment and a 24-h proliferation period. Error bars represent the mean ± SEM of five independent repeats
(§3) For clonogenic assays, cells were treated with compound for 48 h, media were removed and replaced with fresh media for a further 12 days to measure colony formation. For cell viability assays, lymphoma cells were plated at 20,000 cells in 200 μl per well in U-bottom 96 well plates in RPMI medium +20 % FCS. Cells were re-suspended 48 h later, diluted 10-fold in PBS + propidium iodide (PI) and the concentration of PI negative cells was counted using an Attune flow cytometer with autosampler. Breast cancer cells were seeded at a density of 10,000 cells/well in a sterile 96 clear-well plate with 150 μl of DMEM (+10 % FCS and 2 mM L-Glutamine). Each compound treatment was performed in triplicate for 72 h at concentrations of 100 nM and 1, 5, 10 and 50 μM in 100 μl of full-medium. After 72 h, 20 μl of MTT solution (3 mg of MTT Formazan, Sigma/1 ml PBS) was added to the medium and incubated for 4 h at 37 °C in a CO2 incubator. The MTT-product was solubilised with 100 μl DMSO, and for 1 h, incubated in the dark at room temperature. The optical density was read at 570 nm with PHERAstar.

[6] = tested on: MDA-MB-231 cells; experiment: Clonogenic growth assay; format: cell-based; settings: Homo sapiens; MDA-MB-231, 48 h treatment then 12 days in fresh media
Method: as §3

[7] = tested on: SPINK1; experiment: qRT-PCR of SPINK1 mRNA in MDA-MB-231 cells; format: cell-based; settings: for Change in SPINK1 mRNA level: MDA-MB-231, 48 h, single agents 1–15 μM, combination UNC0638 at 7.5 μM with increasing doses of GSK343; for SPINK1 expression upon treatment: MDA-MB-231, multiple doses and time points
Method: as §1, §2

[8] = tested on: DB; experiment: Lymphoma cell growth, cell counting following propidium iodide staining; format: cell-based; settings: Homo sapiens, EZH2 Mutant Y646N, 48 h, PI negative cell count
Method: as §3

[9] = tested on: DOHH2; experiment: as above; format: cell-based; settings: Homo sapiens, DOHH-2, EZH2 W.T., 48 h, PI negative cell count
Method: as §3

[10] = tested on: SC1; experiment: as above; format: cell-based; settings: Homo sapiens, SC-1, EZH2 W.T., 48 h, PI negative cell count
Method: as §3

[11] = tested on: SUDLH8; experiment: as above; format: cell-based; settings: EZH2 W.T. (amplified), 48 h, PI negative cell count
Method: as §3

[12] = tested on: WILL1; experiment: as above; format: cell-based; settings: WILL-1, EZH2 W.T., 48 h, PI negative cell count
Method: as §3

[13] = tested on: WSU-FSCLL; experiment: as above; format: cell-based; settings: EZH2 W.T., 48 h, PI negative cell count
Method: as §3

[14] = tested on: H3K27me3 and H3K9me3; experiment: Western analysis of global histone marks in MDA-MB-231 cells; format: cell-based; settings: range of doses
Method: MDA-MB-231 cells seeded in 6 well plates at a cell density of 3 x 10^5 were treated with HKMTI-1-005 (1–7.5uM) for 48 h. Following lysis in Triton Extraction Buffer (TEB, PBS containing 0.5 % Triton ×100 (v/v), 1/1000 protease inhibitor), nuclei were re-suspended in 0.2 N HCL at a density of 4 x 10^7 nuclei per millilitre and incubated overnight at 4 °C to acid-extract the histones, before being centrifuged at 6500g for 10 min at 4 °C. Protein concentration was determined using the Bradford assay. H3K27me3, H3K9me3, H3K9me2, H3K9me and total H3 protein expression levels in the histone extract samples were determined using Western blot analysis using H3K27me3 (1:1000; Abcam), H3K9me3 (1:1000; Abcam), H3K9me (1:1000) and H3 (1:2000; Abcam) antibodies. After washing, the membrane was incubated with a horseradish peroxidase-labelled secondary antibody (1 h, room temperature). The membrane was incubated for 1 min with 5 mL of Pierce ECL Western blotting substrate (Thermo Scientific). Images were captured using Konica Minolta SRX101A Tabletop X-Ray film processor.

[15] = target: trimeric PRC2 complex (EZH2:EED:SUZ12) (Homo sapiens, UniProt O75530+Q15022+Q15910); experiment: PRC2 enzymatic assay (SPA-type), biotinylated-H3 (21–44) peptide substrate; format: biochemical; settings: EZH2:EED:SUZ12, biotinylated-H3 (21–44) peptide substrate
Chain of trimeric PRC2 complex (EZH2:EED:SUZ12) (Q15910 whole entry): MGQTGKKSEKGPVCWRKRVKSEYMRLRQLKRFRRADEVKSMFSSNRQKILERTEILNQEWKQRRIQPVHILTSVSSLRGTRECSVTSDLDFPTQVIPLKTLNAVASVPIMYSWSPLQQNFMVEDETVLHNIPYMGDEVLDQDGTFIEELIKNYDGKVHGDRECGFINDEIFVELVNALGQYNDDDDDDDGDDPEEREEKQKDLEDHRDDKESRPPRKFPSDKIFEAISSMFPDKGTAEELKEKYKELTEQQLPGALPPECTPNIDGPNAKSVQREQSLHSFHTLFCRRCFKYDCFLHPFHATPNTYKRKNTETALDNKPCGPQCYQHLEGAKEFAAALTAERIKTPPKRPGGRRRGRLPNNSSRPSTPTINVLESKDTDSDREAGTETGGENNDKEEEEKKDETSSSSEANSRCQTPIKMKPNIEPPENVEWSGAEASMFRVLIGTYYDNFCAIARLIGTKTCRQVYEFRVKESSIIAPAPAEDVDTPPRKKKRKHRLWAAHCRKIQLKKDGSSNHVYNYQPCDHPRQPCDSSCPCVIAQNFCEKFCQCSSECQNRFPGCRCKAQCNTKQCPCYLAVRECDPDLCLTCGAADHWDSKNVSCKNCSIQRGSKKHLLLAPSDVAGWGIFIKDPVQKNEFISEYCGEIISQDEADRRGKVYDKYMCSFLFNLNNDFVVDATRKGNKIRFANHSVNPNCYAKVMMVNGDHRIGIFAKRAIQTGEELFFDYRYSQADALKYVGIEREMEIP
Chain of trimeric PRC2 complex (EZH2:EED:SUZ12) (O75530 whole entry partner): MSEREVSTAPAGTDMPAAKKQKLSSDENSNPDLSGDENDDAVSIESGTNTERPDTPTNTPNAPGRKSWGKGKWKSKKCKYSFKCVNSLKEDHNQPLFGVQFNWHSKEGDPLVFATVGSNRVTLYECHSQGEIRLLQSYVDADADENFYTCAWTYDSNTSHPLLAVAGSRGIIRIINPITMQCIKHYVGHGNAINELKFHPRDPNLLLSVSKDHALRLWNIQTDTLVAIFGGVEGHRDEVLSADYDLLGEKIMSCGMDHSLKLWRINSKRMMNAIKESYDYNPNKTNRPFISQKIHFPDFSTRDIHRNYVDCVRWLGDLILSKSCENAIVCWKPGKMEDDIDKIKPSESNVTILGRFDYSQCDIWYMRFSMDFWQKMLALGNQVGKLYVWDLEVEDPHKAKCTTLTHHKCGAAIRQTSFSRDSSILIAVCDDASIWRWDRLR
Chain of trimeric PRC2 complex (EZH2:EED:SUZ12) (Q15022 whole entry partner): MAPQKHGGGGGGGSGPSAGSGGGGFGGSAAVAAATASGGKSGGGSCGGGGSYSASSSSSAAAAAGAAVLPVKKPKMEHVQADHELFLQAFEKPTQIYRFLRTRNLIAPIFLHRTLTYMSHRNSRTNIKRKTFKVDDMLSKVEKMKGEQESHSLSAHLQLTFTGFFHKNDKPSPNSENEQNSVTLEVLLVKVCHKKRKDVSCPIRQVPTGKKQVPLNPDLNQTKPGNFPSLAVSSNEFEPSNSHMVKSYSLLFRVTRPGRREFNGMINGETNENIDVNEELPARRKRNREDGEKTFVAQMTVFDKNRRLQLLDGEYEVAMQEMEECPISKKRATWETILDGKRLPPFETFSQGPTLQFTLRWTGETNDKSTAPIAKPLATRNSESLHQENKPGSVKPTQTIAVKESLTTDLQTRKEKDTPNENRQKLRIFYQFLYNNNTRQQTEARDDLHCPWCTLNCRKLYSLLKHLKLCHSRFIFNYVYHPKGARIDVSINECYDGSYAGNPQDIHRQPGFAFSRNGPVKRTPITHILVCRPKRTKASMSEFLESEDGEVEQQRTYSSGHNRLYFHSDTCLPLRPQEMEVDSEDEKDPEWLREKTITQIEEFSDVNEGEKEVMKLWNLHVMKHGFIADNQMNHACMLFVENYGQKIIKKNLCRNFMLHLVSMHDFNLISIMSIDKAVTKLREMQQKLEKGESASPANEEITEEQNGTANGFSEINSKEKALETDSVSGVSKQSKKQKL
Description: A trimeric PRC2 complex (EZH2:EED:SUZ12) was employed in this assay, along with a biotinylated-H3 (21–44) peptide substrate. […] Since the peptide substrates used in these assays are poor models for the complex and dynamic structure of the chromatin substrate in cells and since the only minimal number of PRC2 proteins (EZH2:EED:SUZ12) required for enzymatically active EZH2 were employed in the PRC2 assay, care should be taken in the over interpretation of this in vitro inhibitory data.

[16] = tested on: EZH2; settings: cited from earlier work
[17] = Homo sapiens, 48 h, normalised against GAPDH, read-out: KRT17 RNA level, fold increase compared to the mock treated sample
[18] = Homo sapiens, 48 h, normalised against GAPDH, read-out: FBXO32 RNA level, fold increase compared to the mock treated sample
[19] = Homo sapiens, 48 h, normalised against GAPDH, read-out: JMJD3 RNA level, fold increase compared to the mock treated sample
[20] = MDA-MB-231 (Table 2), read-out: Cell viability (MTT) IC50

- IC50 [5, 20]: 9.6 µM
- IC50 [6]: 1.4 µM
Structure (SMILES): COc1cc2nc(N3CCCN(C)CC3)nc(NC3CCN(Cc4ccccc4)CC3)c2cc1OC [BIX01294, reference compound]
- fold induction at 10 µM [1, 17]: 1.06
- fold induction at 10 µM [2, 18]: 3.34
- fold induction at 10 µM [3, 19]: 2.7
- fold induction at 10 µM [4]: 0.87

- IC50 [5, 20]: > 15 µM
- IC50 [6]: > 50 µM
- IC50 [8]: < 1 µM
- IC50 [9]: 6.15 µM
- IC50 [10]: 12.1 µM
- IC50 [11]: 5.11 µM
- IC50 [12]: 17.9 µM
- IC50 [13]: 2.87 µM
Structure (SMILES): CCCc1cc(C)[nH]c(=O)c1CNC(=O)c1cc(-c2ccnc(N3CCN(C)CC3)c2)cc2c1cnn2C(C)C [GSK343, reference compound]
- fold induction at 10 µM [1, 17]: 0.9
- Change in KRT17 mRNA level [1]: little change
- fold induction at 10 µM [2, 18]: 1.2
- Change in FBXO32 mRNA level [2]: little change
- fold induction at 10 µM [3, 19]: 1
- Change in JMJD3 mRNA level [3]: little change
- fold induction at 10 µM [4]: 1
- Change in SPINK1 mRNA level [7]: little change
- Effect on cell viability ([5]; MDA-MB-231, MTT, up to 15 μM, 48-h treatment and 24-h proliferation period): no significant reduction in cell viability
- Global levels of H3K27me3 and H3K9me3 (Western) [14]: minor decrease

Structure (SMILES): COc1cc2nc(NCCCN(C)C)nc(NC3CCN(Cc4ccccc4)CC3)c2cc1OC [HKMTI-1-002]
- fold induction at 10 µM [1, 17]: 0.66
- fold induction at 10 µM [2, 18]: 1.12
- fold induction at 10 µM [3, 19]: 1.57
- fold induction at 10 µM [4]: 0.86

- IC50 [15]: 12 µM
Structure (SMILES): COc1cc2nc(N3CCN(c4ccccn4)CC3)nc(NC3CCN(Cc4ccccc4)CC3)c2cc1OC [HKMTI-1-011]
- SPINK1 expression upon treatment [7]: increased

Structure (SMILES): COc1cc2nc(N3CCCC(CO)C3)nc(NC3CCN(C)CC3)c2cc1OC (stereo not drawn) [HKMTI-1-012]
- fold induction at 10 µM [1, 17]: 1.32
- fold induction at 10 µM [2, 18]: 1.06
- fold induction at 10 µM [3, 19]: 0.9
- fold induction at 10 µM [4]: 1.38

Structure (SMILES): COc1cc2nc(N3CCCN(C)CC3)nc(NCc3ccccn3)c2cc1OC [HKMTI-1-013]
- fold induction at 10 µM [1, 17]: 0.78
- fold induction at 10 µM [2, 18]: 0.93
- fold induction at 10 µM [3, 19]: 0.87
- fold induction at 10 µM [4]: 0.13

- IC50 [15]: 16 µM
Structure (SMILES): COc1cc2nc(N3CCCCC3)nc(NC3CCN(Cc4ccccc4)CC3)c2cc1OC [HKMTI-1-022]
- SPINK1 expression upon treatment [7]: increased

- IC50 [5, 20]: 8.2 µM
- IC50 ([5]; MDA-MB-231, MTT, 48-h treatment and 24-h proliferation period (Fig. 1c), read-out: Cell viability IC50 (calculated)): 9 µM
- IC50 [6]: 1.1 µM
Structure (SMILES): COc1cc2c(NC3CCN(C(C)C)CC3)nc(C3CCCCC3)nc2cc1OCCCN1CCCC1 [UNC0638, reference compound]
- fold induction at 7.5 µM ([1]; Homo sapiens, 48 h, MDA-MB-231, single dose 7.5 μM, normalised against GAPDH, read-out: KRT17 RNA level, fold increase compared to the mock treated sample): 1.1
- Change in KRT17 mRNA level [1]: not significantly altered
- fold induction at 7.5 µM ([2]; Homo sapiens, 48 h, MDA-MB-231, single dose 7.5 μM, normalised against GAPDH, read-out: FBXO32 RNA level, fold increase compared to the mock treated sample): 5.5
- Change in FBXO32 mRNA level [2]: dose-dependent upregulation
- fold induction at 7.5 µM ([3]; Homo sapiens, 48 h, MDA-MB-231, single dose 7.5 μM, normalised against GAPDH, read-out: JMJD3 RNA level, fold increase compared to the mock treated sample): 3.4
- Change in JMJD3 mRNA level [3]: dose-dependent upregulation
- fold induction at 7.5 µM ([4]; MDA-MB-231, single dose 7.5 μM): 0.4
- Change in SPINK1 mRNA level [7]: not significantly altered
- Global levels of H3K27me3 and H3K9me3 (Western) [14]: minor decrease
- EZH2 inhibition in biochemical assays [16]: not to significantly inhibit EZH2

Structure (SMILES): COc1cc2c(NC3CCN(C(C)C)CC3)nc(N3CCC(F)(F)CC3)nc2cc1OCCCN1CCCC1 [UNC0642]
- EZH2 inhibition in biochemical assays [16]: not to significantly inhibit EZH2
